Data set [1] is described as follows: Acute toxicity on the male rat, p.o. (Table I). As to conditions: in vivo, po. How it is done: The acute toxicity of compounds I to VI was determined on the male rat (Table I).
The test system of data set [2] is cholesterol and triglycerides. Briefly: Hypocholesterolemiating and hypolipemiating activity in normolipemiating rats (Table III). The class given is in vivo. As to conditions: rat, gastric probe, equivalent of 75 mg/kg clofibrate every 12 hours, 10 days; for Triglycerides: untreated 1.13; for Cholesterol: untreated 90.79; for Cholesterol, decrease / Triglycerides, decrease: versus untreated. How it is done: Groups of 10 normolipemiating rats were treated for 10 days, by gastric probe, with the equivalent of 75 mg/kg of clofibrate, administered every 12 hours. After 10 days, 12 hours after the last administration, they were sacrificed and the cholesterol and triglycerides analysed (Table III).

For data set [3] the following is noted: comparison value given in text, no source or test printed; cited from earlier work.

Where two headings read alike, the source gives them in different places.

These results are taken from patent US4118583A, “Mixed esters of polyols” (Laboratories om Societe Anonyme, priority 1976, dated 1978).

Compound `CC(=O)Oc1ccccc1C(=O)OCC(COC(=O)C(C)(C)Oc1ccc(Cl)cc1)OS(=O)(=O)O` (stereo not drawn) [Compound V] returned a 50% lethal dose (LD50) in data set [1] greater than 5000 mg/kg. Moreover, in data set [2], the Triglycerides is recorded as 0.89 mm mole/l; the Cholesterol is 68.38 mg/100 ml; the “Cholesterol, decrease” value is reported as 25%; the “Triglycerides, decrease” value worked out at 21%.

In data set [1], `CC(=O)Oc1ccccc1C(=O)OCC(COC(=O)C(C)(C)Oc1ccc(Cl)cc1)OC(C)=O` (stereo not drawn) [Compound IV, 1-(acetylsalicyloxy)-3-(2-p-chlorophenoxy-2-methylpropionyloxy)-2-acetoxy-propane] displayed a 50% lethal dose (LD50) greater than 5000 mg/kg. In addition, in data set [2], the Triglycerides came out at 0.97 mm mole/l; the Cholesterol is listed as 72.12 mg/100 ml; the “Cholesterol, decrease” value turned out to be 21%; the “Triglycerides, decrease” value is given as 14%.

As for `CC(=O)Oc1ccccc1C(=O)O` [acetylsalicylic acid], the LD50 in data set [3] is 1750 mg/kg.

`CCOC(=O)C(C)(C)Oc1ccc(Cl)cc1` [clofibrate, reference compound]: the LD50 in data set [3] is 1200 mg/kg. Moreover, in data set [2], the Triglycerides was found to be 0.83 mm mole/l; the Cholesterol is reported as 65.24 mg/100 ml; the “Cholesterol, decrease” value was determined as 28%; the “Triglycerides, decrease” value is listed as 27%.

In turn, `CC(=O)Oc1ccccc1C(=O)OC1C(OC(=O)c2ccccc2OC(C)=O)C(OC(=O)C(C)(C)Oc2ccc(Cl)cc2)C(OC(=O)C(C)(C)Oc2ccc(Cl)cc2)C(OC(=O)C(C)(C)Oc2ccc(Cl)cc2)C1OC(=O)C(C)(C)Oc1ccc(Cl)cc1` (stereo not drawn) [Compound I, 1,2-di-(acetylsalicyl)-3,4,5,6-tetra-(2-p-chlorophenoxy-2-methylpropionyl)-meso-inositol] gave a 50% lethal dose (LD50) in data set [1] greater than 5000 mg/kg. Moreover, in data set [2], the Triglycerides was found to be 0.96 mm mole/l; the Cholesterol came out at 78.25 mg/100 ml; the “Cholesterol, decrease” value was 14%; the “Triglycerides, decrease” value is recorded as 15%.

In the case of `CC(=O)Oc1ccccc1C(=O)OC(COC(=O)C(C)(C)Oc1ccc(Cl)cc1)COC(=O)C(C)(C)Oc1ccc(Cl)cc1` [Compound II, 1,3-di-(2-p-chlorophenoxy-2-methylpropionyloxy)-2-(acetylsalicyloxy)-propane], the LD50 in data set [1] was greater than 7500 mg/kg. For the same compound, in data set [2], the Triglycerides is reported as 0.92 mm mole/l; the Cholesterol was 73.90 mg/100 ml; the “Cholesterol, decrease” value turned out to be 19%; the “Triglycerides, decrease” value is given as 19%.

For the compound `CC(=O)Oc1ccccc1C(=O)OCC(COC(=O)C(C)(C)Oc1ccc(Cl)cc1)OC(=O)C(C)(C)Oc1ccc(Cl)cc1` (stereo not drawn) [Compound III, 3-(acetylsalicyloxy)-1,2-di-(2-p-chlorophenoxy-2-methylpropionyloxy)-propane], the LD50 in data set [1] was greater than 6200 mg/kg. Also, in data set [2], the Triglycerides is 0.91 mm mole/l; the Cholesterol is given as 75.63 mg/100 ml; the “Cholesterol, decrease” value worked out at 17%; the “Triglycerides, decrease” value is recorded as 19%.

Take `CC(=O)Oc1ccccc1C(=O)OCCOC(=O)C(C)(C)Oc1ccc(Cl)cc1` [Compound VI, 1-(acetylsalicyloxy)-2-(2-p-chlorophenoxy-2-methylpropionyloxy)-ethane]: the median lethal dose (LD50) in data set [1] is greater than 6000 mg/kg. For the same compound, in data set [2], the Triglycerides amounted to 0.83 mm mole/l; the Cholesterol is 67.34 mg/100 ml; the “Cholesterol, decrease” value is recorded as 26%; the “Triglycerides, decrease” value turned out to be 27%.

The LD50 is the dose at which mortality reaches 50%.
